Measured values: US7253286B2, “Nitrogen-containing aromatic derivatives” (Eisai Co., Ltd, priority 2000, dated 2007)

Legend:
VEGFR2 = target: T1, VEGFR2 (Homo sapiens, UniProt P35968); test: Inhibition against VEGFR2 kinase (receptor tyrosine kinase activity, HTRF method); format: biochemical; conditions: His6-VEGFR2 cytoplasmic domain, biotin-poly(GT) substrate, ATP, 30° C. 10 minutes, read-out: IC50 (concentration required for 50% inhibition of VEGFR2 kinase activity)
T1 construct: coding for the cytoplasmic domain, beginning with lysine 791 and including the termination codon; made in house; host or cells: Sf9 insect cells (baculovirus, pFastBacHis)
Text: Measurement of Inhibition Against Receptor Tyrosine Kinase Activity
This assay is used to determine inhibition of a test substance on tyrosine kinase activity. DNA coding for the cytoplasmic domain of VEGFR2 is obtained by total cDNA synthesis (Edwards M, International Biotechnology Lab 5(3), 19–25, 1987) or by cloning. Expression in an appropriate expression system can produce a polypeptide with tyrosine kinase activity. […] For VEGFR2 (Genbank Accession No. L04947), the 1.7 kb DNA fragment described by Terman et al. (Oncogene, 6(9), 1677–1683, 1991), coding for the cytoplasmic domain, beginning with lysine 791 and including the termination codon, was isolated from a human placental cDNA library (purchased from Clontech Laboratories, Inc.) and cloned in a Baculovirus expression vector (pFastBacHis, purchased from GIBCO BRL) The recombinant construct was transfected into insect cells (Spondoptea frugiperda9 (Sf9)) to prepare a recombinant Baculovirus. (Instructions for preparation and use of recombinant Baculovirus maybe found in standard texts, such as “Bac-To-Bac Baculovirus Expression System” (GIBCO BRL).) The cytoplasmic fragment starting from lysine 398 (FGFR1, Genbank Accession No. X52833), the cytoplasmic fragment starting from lysine 558 (PDGFRβ, Genbank Accession No. M21616) or the cytoplasmic fragment starting from lysine 974 (HGFR, Genbank Accession No. J02958) may be cloned and expressed by the same method for use in assays for other tyrosine kinases. EGFR was purchased from Sigma Co. (Product No. E-2645).
For expression of the VEGFR2 tyrosine kinase, Sf9 cells were infected with the VEGFR2 recombinant virus and collected after 48 hours. The collected cells were rinsed with ice-cooled phosphate buffered saline (PBS) and then resuspended using 20 ml of ice-cooled Lysis Buffer (50 mM Tris-HCl (pH 8.5), 5 mM 2-mercaptoethanol, 100 mM KCl, 1 mM phenylmethylsulfonyl fluoride, 1% (v/v) NP-40) per 1.5×10^8 cells. The suspension was centrifuged at 12,000 rpm for 30 minutes at 4° C. and the supernatant was obtained.
The supernatant was added to a Ni—NTA agarose column (3 ml, purchased from Qiagen) equilibrated with Buffer A {20 mM Tris-HCl (pH 8.5), 5 mM 2-mercaptoethanol, 500 mM KCl, 20 mM imidazole, 10% (v/v) glycerol}. The column was washed with 30 ml of Buffer A, and then with 6 ml of Buffer B {20 mM Tris-HCl (pH 8.5), 5 mM 2-mercaptoethanol, 1M KCl, 10% (v/v) glycerol}, and finally with 6 ml of Buffer A. After washing, it was eluted with 6 ml of Buffer C {20 mM Tris-HCl (pH8.5), 5mM2-mercaptoethanol, 100 mMKCl, 100 mM imidazole, 10% (v/v) glycerol}. The eluate was placed on a dialysis membrane (purchased from Spectrum Laboratories) and dialyzed with a dialysis buffer {20 mM Tris-HCl (pH 7.5), 10% (v/v) glycerol, 1 mM dithiothreitol, 0.1 mM Na3VO4, 0.1 mM EGTA}. After dialysis, it was supplied for SDS-electrophoresis, and the recombinant protein (His6-VEGFR2, cytoplasmic domain of VEGFR2 fused with 6 histidine residues at the N-terminus) detected at a molecular weight of approximately 100 kDa with Coumassie Brilliant Blue staining was assayed using BSA (bovine serum albumin, purchased from Sigma Co.) as the standard substance, and stored at −80° C. until use. Using the same method for the cytoplasmic domains of FGFR1, PDGFRβ and HGFR yielded respective recombinant proteins fused with 6 histidine residues at the N-termini (His6-FGFR1, His6-PDGFRβ or His6-HGFR).
The tyrosine kinase reaction was conducted as follows. […]

[1] = tested on: Human Umbilical Vein Endothelial Cells (HUVECs); test: Inhibition against sandwich tube formation by vascular endothelial cells in response to stimulation by VEGF; format: cell-based; conditions: HUVEC in collagen gel sandwich, stimulation by VEGF (25 ng/ml VEGF and 10 ng/ml EGF), 4th day, total tube length, read-out: IC50 (concentration required for 50% inhibition of tube formation)
In short: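 HUVECs were sandwiched between collagen gel layers in serum-free medium with 25 ng/ml VEGF plus 10 ng/ml EGF, with test substance added above the gel at 37 °C. On day 4 tubes were MTT-stained and total tube length measured by image analysis. IC50 is the concentration halving tube length relative to no-compound wells.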

T1 sequence (P35968 786-1356 limits assumed): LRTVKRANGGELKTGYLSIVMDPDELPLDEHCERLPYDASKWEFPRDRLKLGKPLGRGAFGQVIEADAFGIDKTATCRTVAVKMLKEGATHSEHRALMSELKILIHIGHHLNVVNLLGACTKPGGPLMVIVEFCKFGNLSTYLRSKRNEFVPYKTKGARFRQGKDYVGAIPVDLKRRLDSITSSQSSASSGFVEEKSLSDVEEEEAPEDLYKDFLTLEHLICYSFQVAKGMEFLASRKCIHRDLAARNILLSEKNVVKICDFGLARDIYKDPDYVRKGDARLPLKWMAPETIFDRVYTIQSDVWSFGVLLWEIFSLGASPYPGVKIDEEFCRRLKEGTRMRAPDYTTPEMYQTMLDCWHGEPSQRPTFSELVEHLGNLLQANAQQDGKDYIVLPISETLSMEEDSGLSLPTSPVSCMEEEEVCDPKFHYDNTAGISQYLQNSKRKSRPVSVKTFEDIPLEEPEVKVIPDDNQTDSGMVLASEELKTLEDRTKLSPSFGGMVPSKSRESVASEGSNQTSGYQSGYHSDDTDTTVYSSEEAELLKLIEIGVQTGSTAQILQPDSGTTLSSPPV

| IC50 (VEGFR2) | Structure (SMILES) | IC50 [1] |
| --- | --- | --- |
| 4.6 nM | CONC(=O)c1cc2c(Oc3ccc(NC(=O)Nc4nccs4)cc3)ccnc2cc1OC [Example 346, N6-Methoxy-7-methoxy-4-(4-(((1,3-thiazol-2-ylamino)carbonyl)amino)phenoxy)-6-quinolinecarboxamide] | 25 nM |
| 26 nM | O=C(Nc1ccc(Oc2ncnc3[nH]c(-c4ccccn4)cc23)cc1F)NC1CC1 [Example 283, 1-Cyclopropyl-3-[2-fluoro-4-(6-(pyridin-2-yl)-7H-pyrrolo[2,3-d]pyrimidin-4-yloxy)phenyl]urea] | 36 nM |
| 5.4 nM | COc1cc2nccc(Oc3ccc(NC(=O)Nc4ccc(F)cc4)cc3)c2cc1NS(C)(=O)=O [Example 266, N-(4-{4-[3-(4-Fluorophenyl)ureido]phenoxy}-7-methoxyquinolin-6-yl)methanesulfoneamide] | 0.6 nM |
| 25 nM | O=C(Nc1ccc(Oc2ncnc3[nH]c(-c4ccc(OC[C@H](O)CN5CCCC5)cc4)cc23)cc1Cl)NC1CC1 [Example 159, 1-(2-Chloro-4-{6-[4-((2R)-2-hydroxy-3-pyrrolidinopropoxy)phenyl]-7H-pyrrolo[2,3-d]pyrimidin-4-yloxy]phenyl}-3-cyclopropylurea] | 0.6 nM |
| 9 nM | NC(=O)c1cc2c(Oc3ccc(NC(=O)NC4CC4)c(Cl)c3)ccnc2cc1OCCCN1CCOCC1 [Example 382, 4-(3-Chloro-4-(cyclopropylaminocarbonyl)aminophenoxy)-7-(3-(4-morpholino)propoxy)-6-quinolinecarboxamide] | 4.6 nM |
| 2.8 nM | COc1cc2nccc(Oc3ccc(NC(=O)NC4CC4)c(Cl)c3)c2cc1C(=O)NCC#N [Example 441, N6-Cyanomethyl-4-(3-chloro-4-(((cyclopropylamino)carbonyl)amino)phenoxy)-7-methoxy-6-quinolinecarboxamide] | 3.6 nM |
| 5.9 nM | CCCC(=O)Nc1cc(Oc2ccc(NC(=O)Nc3ccc(F)cc3)cc2)ccn1 [Example 463, N-[4-(2-Butanoylaminopyridin-4-yl)oxyphenyl]-N′-(4-fluorophenyl)urea] | 26 nM |
| 2.6 nM | COCCOc1cc2nccc(Oc3ccc(NC(=O)NC4CC4)c(Cl)c3)c2cc1C(N)=O [Example 381, 4-(3-Chloro-4-(cyclopropylaminocarbonyl)aminophenoxy)-7-(2-methoxyethoxy)-6-quinolinecarboxamide] | 4.7 nM |
| 51 nM | COc1ccc(NC(=O)Nc2ccc(Oc3ccnc4cc(OCCCc5ccncc5)c(C#N)cc34)cc2)cc1 [Example 1] | 310 nM |
| 15 nM | COCCOc1cc2nccc(Oc3ccc(NC(=O)Nc4ccccc4)cc3)c2cc1C#N [Example 65, N-(4-(6-cyano-7-(methoxyethoxy)-4-quinolyl)oxyphenyl)-N′-phenylurea] | 5.9 nM |
| 4.2 nM | COCCOc1cc2nccc(Oc3ccc(NC(=O)NC4CC4)cc3)c2cc1C(N)=O [Example 116, 4-(4-((Cyclopropylamino)carbonyl)aminophenoxy)-7-(2-methoxyethoxy)-6-quinolinecarboxamide] | 8.1 nM |
| 8.7 nM | COc1cc2nccc(Oc3ccc(NC(=O)NC4CC4)cc3)c2cc1C(N)=O [Example 121, 4-(4-((Cyclopropylamino)carbonyl)aminophenoxy)-7-methoxy-6-quinolinecarboxamide] | 42 nM |
| 5.3 nM | COc1cc2nccc(Oc3ccc4c(ccn4C(=O)NCCF)c3)c2cc1C(N)=O [Example 314, 6-Carbamoyl-4-[1-(2-fluoroethylcarbamoyl)1H-indol-5-yloxy]-7-methoxyquinoline] | 4.2 nM |
| 23 nM | COCCOc1cc2nccc(Sc3ccc(NC(=O)Nc4ccc(F)cc4)s3)c2cc1C#N [Example 253, 1-{5-[6-Cyano-7-(2-methoxyethoxy)-quinolin-4-ylsulfanyl]thiophen-2-yl}-3-(4-fluorophenyl)urea] | 40 nM |
| 15 nM | N#Cc1cc2c(Oc3ccc(NC(=O)Nc4ccc(F)cc4F)c(F)c3)ccnc2cc1OCCN1CCOCC1 [Example 54, N-(4-(6-Cyano-7-(2-(4-morpholino)ethoxy)-4-quinolyl)oxy-2-fluorophenyl)-N′-(2,4-difluorophenyl)urea] | – |
| 2.7 nM | COCCOc1cc2nccc(Oc3ccc(NC(=O)Nc4cccc(OC)c4)cc3)c2cc1C#N [Example 14, N-(4-(6-Cyano-7-(2-methoxyethoxy)-4-quinolyl)oxyphenyl)-N′-(3-methoxyphenyl)urea] | – |
| 6.2 nM | COc1cc2nccc(Oc3ccc(NC(=O)Nc4ccc(F)cc4)cc3)c2cc1NC(C)=O [Example 265, N-(4-{4-[3-(4-Fluorophenyl)ureido]phenoxy}-7-methoxyquinolin-6-yl)acetamide] | 0.6 nM |
| 8.6 nM | COCCOc1cc2nccc(Oc3ccc(NC(=O)Nc4ccccc4)c(F)c3)c2cc1C#N [Example 99, N-(4-(6-Cyano-7-(2-methoxyethoxy)-4-quinolyl)oxy-2-fluorophenyl)-N′-phenylurea] | – |
